The values below come from patent US20050136481A1, “Systems and methods for predicting the structure and function of multipass transmembrane proteins” (priority 2003, published 2005).

One assay has as its target bovine rhodopsin (Bos taurus, UniProt P02699). The assay is described as follows: HierDock binding energy calculation (Eq. 1) of retinal ligands docked into the rhodopsin structure. The note with it: all-trans-retinal versus 11-cis-retinal, HierDock Eq. 1. An excerpt: The negative of the molecular surface of the protein was used to define potential binding regions within the target protein over which the various ligand conformations are to be sampled. The void regions are mapped with spheres generated over the whole target protein using the Sphgen program in DOCK (see Kuntz laboratory at UCSF, San Francisco, Calif.).
To locate the most favorable ligand binding site(s), DOCK 4.0 (Ewing and Kuntz, 1997, incorporated herein by reference) can be used to generate a set of conformations for binding the ligand of interest (e.g. in the case of rhodopsin, 11-cis-retinal—a ligand known to bind to bovine rhodopsin) to each of the overlapping docking regions identified above. For this docking step, a bump filter of 10, a non-distance-dependent dielectric constant of 1.0, and a cutoff of 10 Å may be used for energy evaluation. These values may be adjusted according to specific target proteins. […]
The ligand/protein conformations from Step 5 are further energy-minimized with all atoms (protein, lipid, and ligand) movable using conjugate gradients. The structure with the binding energy calculated by Eq. 1 is selected as: BE1=Energy[ligand in protein complex]−Energy[free Ligand in solvent] […]
Here the energy of the ligand in water is calculated using DREIDING FF and analytical volume Generalized-Born continuum solvation (GBCS) method. […]

Assay [1] addresses T1, rhodopsin (Bos taurus, UniProt P02699). The note with it: experimental result, retinal ligand/protein complex, Okada et al., 2001; cited from earlier work.
Assay [2] has as its target T1, rhodopsin. To be noted: Okada et al., 2001; cited from earlier work.

T1 sequence (P02699 whole entry): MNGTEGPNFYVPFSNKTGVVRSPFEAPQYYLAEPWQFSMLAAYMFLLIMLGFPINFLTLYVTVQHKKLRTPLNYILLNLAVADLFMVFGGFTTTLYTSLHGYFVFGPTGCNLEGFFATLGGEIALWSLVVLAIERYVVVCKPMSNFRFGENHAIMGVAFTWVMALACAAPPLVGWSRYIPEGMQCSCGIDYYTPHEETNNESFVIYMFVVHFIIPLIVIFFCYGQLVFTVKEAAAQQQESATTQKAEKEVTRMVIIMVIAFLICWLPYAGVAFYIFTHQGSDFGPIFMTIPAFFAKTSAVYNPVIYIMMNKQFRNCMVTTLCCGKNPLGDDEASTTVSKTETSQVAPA
bovine rhodopsin, sequence (P02699 whole entry): as above

Consider `CC1=C(/C=C/C(C)=C/C=C/C(C)=C/C=O)C(C)(C)CCC1` [all-trans-retinal], for which the “difference in binding energy” value on bovine rhodopsin was 32 kcal/mol. Consider `CC1=C(/C=C/C(C)=C/C=C/C(C)=C/C=O)C(C)(C)CCC1` [retinal], for which the “energy stored upon isomerization in the protein” value on rhodopsin [1] was 34.7 ± 2.2 kcal/mol. With `CC1=C(/C=C/C(C)=C/C=C/C(C)=C/C=O)C(C)(C)CCC1` [11-cis-retinal], on rhodopsin [2], the “effect on G-protein signaling” value was “inverse agonist”.
